Patent publication EP2558096B1, “COMBINATION OF HYPOXIA-INDUCIBLE FACTOR-1 INHIBITORS AND TOLL-LIKE RECEPTOR-3 AGONISTS FOR TREATING SOLID TUMORS” (Università degli Studi di Roma "La Sapienza", priority 2010, dated 2011)
Where two headings read alike, the source gives them in different places. *1 amine or outer side, *2 acyl side, *3 side chain or, on linkers, in order; H or OH if unused. Where a SMILES comes first, the peptide text is derived from it. Bridges are numbered along the chain shown (N, C = ends). Roman numbers before positions name the chains, in order. [ ]: non-standard residue; d: D form. The star is where a group is joined. Actinocin(9to1) = Cc1c2oc3c(C)ccc(C(=O)[*:1])c3nc-2c(C(=O)[*:2])c(N)c1=O; NMeV = CN[C@H](C(=O)O)C(C)C; Cbz = O=C(OCc1ccccc1)*; Sar = CNCC(=O)O

Tested on: HIF-1α
Assay: Western blot of HIF-1α protein in PC3 cells (whole cell and nuclear extracts)
Format: cell-based, human
Protocol: LNCaP and PC3 prostate cancer cells were purchased from ATCC and were grown in DME medium supplemented with 2 mM L-glutamine, 100 IU/ml penicillin-streptomycin and 10% FCS (Sigma-Aldrich, St Louis, MO). For all the experiments, prostate cancer cell lines were serum starved for 18 h and then stimulated with poly(I:C) (InvivoGen, San Diego) in FCS-free medium. Human Umbilical Vein Endothelial Cells (HUVEC) were maintained in EGM®-2 complete medium (Lonza, Basel, Switzerland). Actinomycin D, cycloheximide and CoCl2 were from Sigma. MG-132 was from Calbiochem-Merk (Damstadt, Germany).
Cell lysates were prepared in cell lysis buffer (Cell Signaling, Danvers, MA). Equal amounts of proteins (40 µg) were subjected to SDS-polyacrylamide gel electrophoresis and transferred onto a nitrocellulose membrane saturated with 5% non-fat dry milk in Tris-buffered saline with 0.1% Tween-20 (T-TBS). Membranes were incubated with primary antibody and subsequently with horseradish peroxidase-conjugated (HRP) secondary antibody for 1 h at room temperature. Membranes were washed with T-TBS and developed using the chemiluminescence system (ECL; Amersham Bioscience, Piscataway, NJ). Antibody anti-HIF-1α was from BD biosciences (San Diego, CA), cleaved caspase-3 (Asp175) from Cell Signalling (Danvers, MA) and anti-β actin from Sigma. Secondary antibodies were HRP-conjugated goat anti-mouse or anti-rabbit (Bio-Rad, Hercules, CA). To perform Western blot of nuclear extracts, cells were washed in ice-cold PBS, scraped and collected in buffer A (10 mM Tris, pH 7.8, 1.5 Mm MgC12, and 10 mM KCl), and kept on ice for 10 min. before Dounce homogenization. Nuclei were then pelleted at 1000 g for 7 min. at 4°C, re-suspended in 150 µl ice-cold lysis buffer and incubated for 30 min. on ice in the presence of proteases inhibitor cocktail (Sigma) then stored at -80°C. Protein concentration was determined by the micro bicinchoninic acid (BCA) method (Pierce, Rockford, IL).
One day after plating (1 x 10^5 cells/ml), cells were transiently transfected with 1 µg of a plasmid encoding 1.3 isoform of hif-1α [6] or relative control plasmid (pcDNA3) or with 1 µg of a plasmid containing an interfering sequence targeting hif-1α (int.HIF-1α) or the relative control (int. scramble) previously described. Cells were transfected for 5 h with lipofectamine LTX/plus (Invitrogen, Carlsbad, CA) according to the manufacturer's protocol. Challenge with poly(I:C) was performed 18 h later.
To obtain stably transfected PC3 cells with non-functional TLR3, cells were transfected with 1 µg TLR3-dominant negative plasmid (TLR3-DN) (pZERO-hTLR3, Invivogen) or with 1 µg plasmid containing only the resistance to puromycin (pPURO), using lipofectamine LTX/plus as described above. 48 h later, the cells were trypsinized, and seeded at different dilutions onto 100-mm plates in complete DMEM supplemented with 2 µg/ml puromycin (Invivogen). After incubation at 37°C for 2 to 3 weeks, individual colonies were isolated using sterile cloning rings, trypsinized and plated onto 12-well plates. The clones obtained were expanded and maintained in DMEM supplemented with 2 µg/ml puromycin.

With `C[C@@H]1C[C@@H]([C@H](O)CC2CC(=O)NC(=O)C2)C(=O)[C@@H](C)C1` [CHX, cycloheximide] the “effect on HIF-1α increase by CoCl2 combined with MG-132” value was “not significantly inhibited”, the “effect on HIF-1α increase by poly(I:C) in MG-132-treated cells” value was “reverted the increase to the level of MG-132 alone” and the “effect on HIF-1α protein accumulation in cells treated with CoCl2” value was “did not inhibit”. The “effect on poly(I:C)-dependent HIF-1α protein induction” value was “completely abolished”.

With `CC(C)C[C@@H](C=O)NC(=O)[C@H](CC(C)C)NC(=O)[C@H](CC(C)C)NC(=O)OCc1ccccc1` [MG-132] (Cbz-Leu-Leu-Leu-aldehyde) the “level of HIF-1α in the absence of poly(I:C)” value (PC3 cells, 5 µg/ml MG-132, 3 h, Fig. 2B lower) was “induced an increase” and the “HIF-1α compared to CoCl2 alone” value (PC3 cells, CoCl2 combined with MG-132, Fig. 2B lower) was “greater increment”.

For `Cc1c2oc3c(C)ccc(C(=O)N[C@@H]4C(=O)N[C@H](C(C)C)C(=O)N5CCC[C@H]5C(=O)N(C)CC(=O)N(C)[C@@H](C(C)C)C(=O)O[C@@H]4C)c3nc-2c(C(=O)N[C@@H]2C(=O)N[C@H](C(C)C)C(=O)N3CCC[C@H]3C(=O)N(C)CC(=O)N(C)[C@@H](C(C)C)C(=O)O[C@@H]2C)c(N)c1=O` [Act D, actinomycin D] (I: T[dV]P[Sar][NMeV] / II: T[dV]P[Sar][NMeV]; ester I:1-I:C, II:1-II:C; linker I:N-II:N via Actinocin(9to1)), the “effect on HIF-1α protein accumulation in cells treated with CoCl2” value (PC3 cells, 100 µM CoCl2 3 h, Fig. 2B upper) was “did not inhibit” and the “effect on poly(I:C)-dependent HIF-1α protein induction” value (PC3 cells, poly(I:C) 5 µg/ml about 6 h, inhibitor for 15 min (CHX 100 µg/ml, Act D 2 µg/ml), Fig. 2B upper) was “completely abolished”.
